Key:
human RIPK1 = human RIPK1 (Homo sapiens (Human), UniProt Q13546); experiment: KINOMEscan binding assay, human RIPK1; settings: equilibrium dissociation constant
Summary of the method: (§1)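 KINOMEscan competition binding using kinase-tagged T7 phage or HEK-293-produced DNA-tagged protein captured on ligand beads, with eluted protein quantified by qPCR. Compounds were run as an 11-point 3-fold series, top 30,000 nM, in 1% DMSO. Kd was fitted with the Hill equation, slope fixed at −1.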

[1] = test system: U937 human histiocytic leukemia cell line; experiment: Inhibition of TSQ induced necroptosis in U937 cells (CellTitre-Glo); settings: Homo sapiens, U-937, TSQ cocktail (TNF, Smac mimetic, Q-VD-OPh), 48 hours, read-out: Inhibition of TSQ-induced necroptosis (IC50 cell-based assay)
Summary of the method: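 Necroptosis was induced with TNF-Fc (100 ng/ml), Smac mimetic (500 nM) and Q-VD-OPh (10 μM) in 20000 U937 cells/well exposed to a 10-point, 3-fold compound series (top 36 μM, 0.3% DMSO). ATP luminescence read after 48 h; 4-parameter fit gave IC50. Parallel TSQ-free wells assessed compound toxicity.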

human MLKL (full length) = human MLKL (full length) (Homo sapiens (Human), UniProt Q8NB16); experiment: KINOMEscan binding assay, human MLKL (full length); settings: equilibrium dissociation constant
Summary of the method: as §1

U937 cells = experiment: Counter screen: U937 cell viability without TSQ cocktail (off-target effect); design: species or system human; settings: Homo sapiens, U-937, compound without TSQ cocktail, read-out: Off-target effect (IC50 cell-based assay)
Summary of the method: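 Off-target viability counter screen: compounds titrated 36 μM down 1:3 over 10 points (0.3% DMSO) on 20,000 U937 cells/well, no TNF/Smac mimetic/Q-VD-OPh added, 48 h incubation. ATP-based CellTiter-Glo luminescence, four-parameter logistic IC50.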

human RIPK3 = human RIPK3 (Homo sapiens (Human), UniProt Q9Y572); experiment: KINOMEscan binding assay, human RIPK3; settings: equilibrium dissociation constant
Summary of the method: as §1

Sequence of human RIPK3 (Q9Y572 whole entry): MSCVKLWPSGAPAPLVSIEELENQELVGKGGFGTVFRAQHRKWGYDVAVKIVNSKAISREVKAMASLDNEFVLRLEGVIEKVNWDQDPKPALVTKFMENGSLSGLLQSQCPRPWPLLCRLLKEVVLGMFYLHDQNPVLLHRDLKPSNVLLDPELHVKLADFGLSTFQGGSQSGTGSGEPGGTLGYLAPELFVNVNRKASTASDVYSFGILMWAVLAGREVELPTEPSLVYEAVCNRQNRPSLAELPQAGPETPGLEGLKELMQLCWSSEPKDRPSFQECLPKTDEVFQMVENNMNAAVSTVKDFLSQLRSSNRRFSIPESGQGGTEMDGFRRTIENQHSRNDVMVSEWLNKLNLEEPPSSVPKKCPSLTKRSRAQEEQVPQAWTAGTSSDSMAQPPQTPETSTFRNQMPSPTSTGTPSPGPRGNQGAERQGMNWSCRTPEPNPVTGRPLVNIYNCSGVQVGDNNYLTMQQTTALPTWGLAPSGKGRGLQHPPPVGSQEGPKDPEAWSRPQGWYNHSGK
Sequence of human MLKL (full length) (Q8NB16 whole entry): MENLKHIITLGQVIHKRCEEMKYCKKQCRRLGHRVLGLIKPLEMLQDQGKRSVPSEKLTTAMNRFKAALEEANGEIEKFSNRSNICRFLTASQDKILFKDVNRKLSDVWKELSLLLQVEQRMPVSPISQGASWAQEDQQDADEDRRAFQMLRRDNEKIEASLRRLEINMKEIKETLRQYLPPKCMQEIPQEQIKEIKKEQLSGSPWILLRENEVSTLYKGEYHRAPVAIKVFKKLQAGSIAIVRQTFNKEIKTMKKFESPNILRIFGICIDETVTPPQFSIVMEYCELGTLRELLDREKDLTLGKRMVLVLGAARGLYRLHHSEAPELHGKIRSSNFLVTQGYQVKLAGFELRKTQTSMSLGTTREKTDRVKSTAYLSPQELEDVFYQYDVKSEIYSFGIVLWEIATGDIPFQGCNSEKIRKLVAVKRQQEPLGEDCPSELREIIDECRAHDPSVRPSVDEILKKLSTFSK
Sequence of human RIPK1 (Q13546 whole entry): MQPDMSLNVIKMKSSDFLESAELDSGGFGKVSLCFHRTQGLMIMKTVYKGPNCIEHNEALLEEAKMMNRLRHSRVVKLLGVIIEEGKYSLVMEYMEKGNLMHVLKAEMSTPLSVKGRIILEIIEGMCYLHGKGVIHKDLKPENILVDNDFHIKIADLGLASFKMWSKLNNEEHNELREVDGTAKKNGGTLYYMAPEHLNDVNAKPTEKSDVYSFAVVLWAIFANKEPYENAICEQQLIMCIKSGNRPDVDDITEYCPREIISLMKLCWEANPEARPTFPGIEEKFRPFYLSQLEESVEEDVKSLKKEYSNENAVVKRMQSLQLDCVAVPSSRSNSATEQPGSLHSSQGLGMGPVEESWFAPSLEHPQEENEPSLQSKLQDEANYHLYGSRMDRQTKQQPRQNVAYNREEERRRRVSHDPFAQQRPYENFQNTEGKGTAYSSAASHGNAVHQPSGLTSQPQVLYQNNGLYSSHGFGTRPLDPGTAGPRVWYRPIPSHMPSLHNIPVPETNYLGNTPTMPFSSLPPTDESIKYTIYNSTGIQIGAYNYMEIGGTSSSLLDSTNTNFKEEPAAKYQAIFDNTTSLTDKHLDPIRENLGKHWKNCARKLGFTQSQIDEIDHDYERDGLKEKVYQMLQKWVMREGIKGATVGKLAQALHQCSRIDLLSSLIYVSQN

Row | SMILES | Kd (human RIPK1) | Kd (human MLKL (full length)) | Kd (human RIPK3) | IC50 [1] | IC50 (U937 cells)
1 | CC(C)N(C)CC(C)n1cc(-c2cnc(N)c3c(-c4ccc(NS(=O)(=O)C(F)F)c(O[C@@H](C)c5ccc(F)cc5)c4)nn(C)c23)cn1 (stereo partly drawn) [Compound 101, N-(4-(4-amino-7-(1-(1-(isopropyl(methyl)amino)propan-2-yl)-1H-pyrazol-4-yl)-1-methyl-1H-pyrazolo[4,3-c]pyridin-3-yl)-2-((S)-1-(4-fluorophenyl)ethoxy)phenyl)-1,1-difluoromethanesulfonamide] | > 10000 nM | < 1 nM | > 10000 nM | < 10 nM | > 10000 nM
2 | C[C@H](Oc1cc(-c2nn(C)c3c(-c4cnc(N5CCN(C)CC5)nc4)cnc(N)c23)ccc1NS(=O)(=O)C(F)F)c1ccc(F)cc1 [Compound 105, (S)-N-(4-(4-amino-1-methyl-7-(2-(4-methylpiperazin-1-yl)pyrimidin-5-yl)-1H-pyrazolo[4,3-c]pyridin-3-yl)-2-(1-(4-fluorophenyl)ethoxy)phenyl)-1,1-difluoromethanesulfonamide] | > 10000 nM | < 1 nM | > 10000 nM | 10 to 1000 nM | > 10000 nM
3 | C[C@H](Oc1cc(-c2nn(C)c3c(-c4cnc(N(C)C)nc4)cnc(N)c23)ccc1NS(=O)(=O)C(F)F)c1ccc(F)cc1 [Compound 106, (S)-N-(4-(4-amino-7-(2-(dimethylamino)pyrimidin-5-yl)-1-methyl-1H-pyrazolo[4,3-c]pyridin-3-yl)-2-(1-(4-fluorophenyl)ethoxy)phenyl)-1,1-difluoromethanesulfonamide] | > 10000 nM | 1 to 100 nM | > 10000 nM | 10 to 1000 nM | > 10000 nM
4 | C[C@H](Oc1cc(-c2nn(C)c3c(-c4ccc(N5CCN(C)CC5)nc4)cnc(N)c23)ccc1NS(=O)(=O)C(F)F)c1ccc(F)cc1 [Compound 107, (S)-N-(4-(4-amino-1-methyl-7-(6-(4-methylpiperazin-1-yl)pyridin-3-yl)-1H-pyrazolo[4,3-c]pyridin-3-yl)-2-(1-(4-fluorophenyl)ethoxy)phenyl)-1,1-difluoromethanesulfonamide] | > 10000 nM | < 1 nM | > 10000 nM | 10 to 1000 nM | > 10000 nM
5 | C[C@H](Oc1cc(-c2nn(C)c3c(-c4cnc(N)nc4)cnc(N)c23)ccc1NS(=O)(=O)C(F)F)c1ccc(F)cc1 [Compound 108, (S)-N-(4-(4-amino-7-(2-aminopyrimidin-5-yl)-1-methyl-1H-pyrazolo[4,3-c]pyridin-3-yl)-2-(1-(4-fluorophenyl)ethoxy)phenyl)-1,1-difluoromethanesulfonamide] | > 10000 nM | < 1 nM | > 10000 nM | 10 to 1000 nM | > 10000 nM
6 | COC[C@H](Oc1cc(-c2nn(C)c3c(-c4cnn(C5CCOCC5)c4)cnc(N)c23)ccc1NS(=O)(=O)C(F)F)c1ccc(F)cc1 [Compound 111, (R)—N-(4-(4-amino-1-methyl-7-(1-(tetrahydro-2H-pyran-4-yl)-1H-pyrazol-4-yl)-1H-pyrazolo[4,3-c]pyridin-3-yl)-2-(1-(4-fluorophenyl)-2-methoxyethoxy)phenyl)-1,1-difluoromethanesulfonamide] | > 10000 nM | 1 to 100 nM | > 10000 nM | 10 to 1000 nM | > 10000 nM
7 | C[C@H](Oc1cc(-c2nn(C)c3c(-c4ccc(N5CCOCC5)nc4)cnc(N)c23)ccc1NS(=O)(=O)C(F)F)c1ccc(F)cc1 [Compound 115, (S)-N-(4-(4-amino-1-methyl-7-(6-morpholinopyridin-3-yl)-1H-pyrazolo[4,3-c]pyridin-3-yl)-2-(1-(4-fluorophenyl)ethoxy)phenyl)-1,1-difluoromethanesulfonamide] | > 10000 nM | 1 to 100 nM | > 10000 nM | 10 to 1000 nM | > 10000 nM

Continued, in another order:

Row | Kd (human RIPK1) | Kd (human MLKL (full length)) | Kd (human RIPK3) | SMILES | IC50 [1] | IC50 (U937 cells)
8 | > 10000 nM | < 1 nM | > 10000 nM | C[C@H](Oc1cc(-c2nn(C)c3c(-c4cnn(C5(CN)CC5)c4)cnc(N)c23)ccc1NS(=O)(=O)C(F)F)c1ccc(F)cc1 [Compound 89, (S)—N-(4-(4-amino-7-(1-(1-(aminomethyl)cyclopropyl)-1H-pyrazol-4-yl)-1-methyl-1H-pyrazolo[4,3-c]pyridin-3-yl)-2-(1-(4-fluorophenyl)ethoxy)phenyl)-1,1-difluoromethanesulfonamide] | 10 to 1000 nM | > 10000 nM
9 | > 10000 nM | < 1 nM | > 10000 nM | C[C@H](Oc1cc(-c2nn(C)c3c(-c4cnn(C5CN(C)C5)c4)cnc(N)c23)ccc1NS(=O)(=O)C(F)F)c1ccc(F)cc1 [Compound 92, (S)-N-(4-(4-amino-1-methyl-7-(1-(1-methylazetidin-3-yl)-1H-pyrazol-4-yl)-1H-pyrazolo[4,3-c]pyridin-3-yl)-2-(1-(4-fluorophenyl)ethoxy)phenyl)-1,1-difluoromethanesulfonamide] | 10 to 1000 nM | > 10000 nM
10 | > 10000 nM | < 1 nM | > 10000 nM | C[C@H](Oc1cc(-c2nn(C)c3c(-c4cnn(C5CCN(C)C5)c4)cnc(N)c23)ccc1NS(=O)(=O)C(F)F)c1ccc(F)cc1 (stereo partly drawn) [Compound 93, N-(4-(4-amino-1-methyl-7-(1-(1-methylpyrrolidin-3-yl)-1H-pyrazol-4-yl)-1H-pyrazolo[4,3-c]pyridin-3-yl)-2-((S)-1-(4-fluorophenyl)ethoxy)phenyl)-1,1-difluoromethanesulfonamide] | 10 to 1000 nM | > 10000 nM
11 | > 10000 nM | < 1 nM | > 10000 nM | C[C@H](Oc1cc(-c2nn(C)c3c(-c4cnn(C5CNC5)c4)cnc(N)c23)ccc1NS(=O)(=O)C(F)F)c1ccc(F)cc1 [Compound 94, (S)-N-(4-(4-amino-7-(1-(azetidin-3-yl)-1H-pyrazol-4-yl)-1-methyl-1H-pyrazolo[4,3-c]pyridin-3-yl)-2-(1-(4-fluorophenyl)ethoxy)phenyl)-1,1-difluoromethanesulfonamide] | 10 to 1000 nM | > 10000 nM
12 | > 10000 nM | 1 to 100 nM | > 10000 nM | CC1CNCC(n2cc(-c3cnc(N)c4c(-c5ccc(NS(=O)(=O)C(F)F)c(O[C@@H](C)c6ccc(F)cc6)c5)nn(C)c34)cn2)C1 (stereo partly drawn) [Compound 95, N-(4-(4-amino-1-methyl-7-(1-(5-methylpiperidin-3-yl)-1H-pyrazol-4-yl)-1H-pyrazolo[4,3-c]pyridin-3-yl)-2-((S)-1-(4-fluorophenyl)ethoxy)phenyl)-1,1-difluoromethanesulfonamide] | 10 to 1000 nM | > 10000 nM
13 | > 10000 nM | < 1 nM | > 10000 nM | C[C@H](Oc1cc(-c2nn(C)c3c(-c4cnn(C5(C#N)CC5)c4)cnc(N)c23)ccc1NS(=O)(=O)C(F)F)c1ccc(F)cc1 [Compound 96, (S)-N-(4-(4-amino-7-(1-(1-cyanocyclopropyl)-1H-pyrazol-4-yl)-1-methyl-1H-pyrazolo[4,3-c]pyridin-3-yl)-2-(1-(4-fluorophenyl)ethoxy)phenyl)-1,1-difluoromethanesulfonamide] | 10 to 1000 nM | > 10000 nM
14 | > 10000 nM | < 1 nM | > 10000 nM | C[C@H](Oc1cc(-c2nn(C)c3c(-c4cnn(CCN(C)C)c4)cnc(N)c23)ccc1NS(=O)(=O)C(F)F)c1ccc(F)cc1 [Compound 100, (S)-N-(4-(4-amino-7-(1-(2-(dimethylamino)ethyl)-1H-pyrazol-4-yl)-1-methyl-1H-pyrazolo[4,3-c]pyridin-3-yl)-2-(1-(4-fluorophenyl)ethoxy)phenyl)-1,1-difluoromethanesulfonamide] | < 10 nM | > 10000 nM
